# Test results: PubChem BioAssay (NCI)
#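 Assay format: 96-well plates, 48-hour exposure. GI50 is the concentration that inhibits growth by half. TGI marks complete inhibition of growth.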
# Columns and labels:
# Assay in all cases: NCI-60 cell line screen, 48 h
# LOX IMVI melanoma = test system: LOX IMVI melanoma
# BT-549 breast = test system: BT-549 breast
# ACHN renal = test system: ACHN renal
# KM12 colon = test system: KM12 colon
# DU-145 prostate = test system: DU-145 prostate
# OVCAR-5 ovarian = test system: OVCAR-5 ovarian
# MALME-3M melanoma = test system: MALME-3M melanoma
# SK-MEL-2 melanoma = test system: SK-MEL-2 melanoma
# UACC-257 melanoma = test system: UACC-257 melanoma
# MCF7 breast = test system: MCF7 breast
# M14 melanoma = test system: M14 melanoma
# RXF 393 renal = test system: RXF 393 renal
# SF-295 CNS = test system: SF-295 CNS
# HOP-92 NSCLC = test system: HOP-92 NSCLC
# PC-3 prostate = test system: PC-3 prostate
# MDA-MB-435 = test system: MDA-MB-435
# UACC-62 melanoma = test system: UACC-62 melanoma
# SK-OV-3 ovarian = test system: SK-OV-3 ovarian
# TK-10 renal = test system: TK-10 renal
# NCI-H522 lung = test system: NCI-H522 lung
# U251 CNS = test system: U251 CNS
# SNB-19 CNS = test system: SNB-19 CNS
# A549 NSCLC = test system: A549 NSCLC
# COLO 205 colon = test system: COLO 205 colon
# HCT-15 colon = test system: HCT-15 colon
# T-47D breast = test system: T-47D breast
# HOP-62 NSCLC = test system: HOP-62 NSCLC
# MDA-MB-468 breast = test system: MDA-MB-468 breast
# SR leukemia = test system: SR leukemia
# HCC-2998 colon = test system: HCC-2998 colon
# NCI-H23 lung = test system: NCI-H23 lung
# NCI-H460 lung = test system: NCI-H460 lung
# 786-0 renal = test system: 786-0 renal
# UO-31 renal = test system: UO-31 renal
# CCRF-CEM leukemia = test system: CCRF-CEM leukemia
# SF-268 CNS = test system: SF-268 CNS
# K-562 leukemia = test system: K-562 leukemia
# SN12C renal = test system: SN12C renal
# MDA-MB-231 breast = test system: MDA-MB-231 breast
# OVCAR-4 ovarian = test system: OVCAR-4 ovarian
# SW-620 colon = test system: SW-620 colon
# OVCAR-8 ovarian = test system: OVCAR-8 ovarian
# HL-60(TB) leukemia = test system: HL-60(TB) leukemia
# NCI/ADR-RES ovarian = test system: NCI/ADR-RES ovarian
# EKVX NSCLC = test system: EKVX NSCLC
# HS 578T breast = test system: HS 578T breast
# SNB-75 CNS = test system: SNB-75 CNS
# CAKI-1 renal = test system: CAKI-1 renal
# SK-MEL-5 melanoma = test system: SK-MEL-5 melanoma
# OVCAR-3 ovarian = test system: OVCAR-3 ovarian
# RPMI-8226 leukemia = test system: RPMI-8226 leukemia
# NCI-H226 lung = test system: NCI-H226 lung
# SK-MEL-28 melanoma = test system: SK-MEL-28 melanoma
# HCT-116 colon = test system: HCT-116 colon
# SF-539 CNS = test system: SF-539 CNS
# A498 renal = test system: A498 renal
# MOLT-4 leukemia = test system: MOLT-4 leukemia
# HT29 colon = test system: HT29 colon
smiles,measurement,setting,value
COc1cncc(-c2ccc3ncnc(N4CCc5ccc(Cl)cc54)c3c2)c1,GI50,LOX IMVI melanoma,3.28 µM
same,TGI,LOX IMVI melanoma,20.5 µM
same,GI50,BT-549 breast,1.78 µM
same,TGI,BT-549 breast,8.41 µM
same,GI50,ACHN renal,1.04 µM
same,TGI,ACHN renal,15.5 µM
same,GI50,KM12 colon,2.58 µM
same,TGI,KM12 colon,16.4 µM
same,GI50,DU-145 prostate,1.98 µM
same,TGI,DU-145 prostate,27 µM
same,GI50,OVCAR-5 ovarian,3.13 µM
same,TGI,OVCAR-5 ovarian,23.7 µM
same,GI50,MALME-3M melanoma,9.11 µM
same,TGI,MALME-3M melanoma,24.2 µM
same,GI50,SK-MEL-2 melanoma,4.33 µM
same,TGI,SK-MEL-2 melanoma,19.7 µM
same,GI50,UACC-257 melanoma,9.01 µM
same,TGI,UACC-257 melanoma,28.5 µM
same,GI50,MCF7 breast,1.74 µM
same,TGI,MCF7 breast,11.3 µM
same,GI50,M14 melanoma,7.6 µM
same,TGI,M14 melanoma,37.4 µM
same,GI50,RXF 393 renal,1.28 µM
same,TGI,RXF 393 renal,4.86 µM
same,GI50,SF-295 CNS,3.53 µM
same,TGI,SF-295 CNS,29.6 µM
same,GI50,HOP-92 NSCLC,2.24 µM
same,TGI,HOP-92 NSCLC,17.8 µM
same,GI50,PC-3 prostate,2.47 µM
same,TGI,PC-3 prostate,> 100 µM
same,GI50,MDA-MB-435,4.05 µM
same,TGI,MDA-MB-435,22.3 µM
same,GI50,UACC-62 melanoma,2.49 µM
same,TGI,UACC-62 melanoma,16.3 µM
same,GI50,SK-OV-3 ovarian,2.81 µM
same,TGI,SK-OV-3 ovarian,16.4 µM
same,GI50,TK-10 renal,1.27 µM
same,TGI,TK-10 renal,9.58 µM
same,GI50,NCI-H522 lung,2.17 µM
same,TGI,NCI-H522 lung,12.1 µM
same,GI50,U251 CNS,4.24 µM
same,TGI,U251 CNS,24 µM
same,GI50,SNB-19 CNS,3.56 µM
same,TGI,SNB-19 CNS,27 µM
same,GI50,A549 NSCLC,1.85 µM
same,TGI,A549 NSCLC,18.4 µM
same,GI50,COLO 205 colon,4.4 µM
same,TGI,COLO 205 colon,23 µM
same,GI50,HCT-15 colon,3.04 µM
same,TGI,HCT-15 colon,19.9 µM
same,GI50,T-47D breast,1.23 µM
same,TGI,T-47D breast,10 µM
same,GI50,HOP-62 NSCLC,2.19 µM
same,TGI,HOP-62 NSCLC,24.9 µM
same,GI50,MDA-MB-468 breast,0.231 µM
same,TGI,MDA-MB-468 breast,2.26 µM
same,GI50,SR leukemia,3.03 µM
same,TGI,SR leukemia,25.4 µM
same,GI50,HCC-2998 colon,3.48 µM
same,TGI,HCC-2998 colon,19.8 µM
same,GI50,NCI-H23 lung,5.33 µM
same,TGI,NCI-H23 lung,29.6 µM
same,GI50,NCI-H460 lung,3.65 µM
same,TGI,NCI-H460 lung,20.3 µM
same,GI50,786-0 renal,1.61 µM
same,TGI,786-0 renal,15.8 µM
same,GI50,UO-31 renal,0.718 µM
same,TGI,UO-31 renal,11.8 µM
same,GI50,CCRF-CEM leukemia,3.13 µM
same,TGI,CCRF-CEM leukemia,54.1 µM
same,GI50,SF-268 CNS,3.02 µM
same,TGI,SF-268 CNS,26.9 µM
same,GI50,K-562 leukemia,4.56 µM
same,TGI,K-562 leukemia,> 100 µM
same,GI50,SN12C renal,2.42 µM
same,TGI,SN12C renal,21.3 µM
same,GI50,MDA-MB-231 breast,3.43 µM
same,TGI,MDA-MB-231 breast,33.1 µM
same,GI50,OVCAR-4 ovarian,2.69 µM
same,TGI,OVCAR-4 ovarian,22.9 µM
same,GI50,SW-620 colon,6.17 µM
same,TGI,SW-620 colon,26.9 µM
same,GI50,OVCAR-8 ovarian,3.98 µM
same,TGI,OVCAR-8 ovarian,55.9 µM
same,TGI,HL-60(TB) leukemia,6.2 µM
same,GI50,NCI/ADR-RES ovarian,2.16 µM
same,TGI,NCI/ADR-RES ovarian,27.9 µM
same,GI50,EKVX NSCLC,1.22 µM
same,TGI,EKVX NSCLC,11.5 µM
same,GI50,HS 578T breast,1.48 µM
same,TGI,HS 578T breast,6.5 µM
same,GI50,SNB-75 CNS,0.623 µM
same,TGI,SNB-75 CNS,5.25 µM
same,GI50,CAKI-1 renal,0.885 µM
same,TGI,CAKI-1 renal,13.8 µM
same,GI50,SK-MEL-5 melanoma,2.62 µM
same,TGI,SK-MEL-5 melanoma,12.4 µM
same,GI50,OVCAR-3 ovarian,2.41 µM
same,TGI,OVCAR-3 ovarian,18.4 µM
same,GI50,RPMI-8226 leukemia,2.97 µM
same,TGI,RPMI-8226 leukemia,> 100 µM
same,GI50,NCI-H226 lung,2.04 µM
same,TGI,NCI-H226 lung,18.3 µM
same,GI50,SK-MEL-28 melanoma,7.02 µM
same,TGI,SK-MEL-28 melanoma,21.9 µM
same,GI50,HCT-116 colon,2.97 µM
same,TGI,HCT-116 colon,77.7 µM
same,GI50,SF-539 CNS,3.41 µM
same,TGI,SF-539 CNS,14.4 µM
same,GI50,A498 renal,0.371 µM
same,TGI,A498 renal,4.02 µM
same,GI50,MOLT-4 leukemia,1.96 µM
same,TGI,MOLT-4 leukemia,6.96 µM
same,GI50,HT29 colon,3.11 µM
same,TGI,HT29 colon,20.5 µM
